# Patent publication US20110172230A1, “UREA COMPOUND OR SALT THEREOF” (priority 2006, published 2011)
# Counter-ions that a name gives are not always drawn.
# Molecular target: T1, FAAH (Homo sapiens, UniProt O00519)
# T1 construct: host or cells: 5637 human bladder epithelial cancer-derived cells, not transfected
# T1 sequence (O00519 1-579): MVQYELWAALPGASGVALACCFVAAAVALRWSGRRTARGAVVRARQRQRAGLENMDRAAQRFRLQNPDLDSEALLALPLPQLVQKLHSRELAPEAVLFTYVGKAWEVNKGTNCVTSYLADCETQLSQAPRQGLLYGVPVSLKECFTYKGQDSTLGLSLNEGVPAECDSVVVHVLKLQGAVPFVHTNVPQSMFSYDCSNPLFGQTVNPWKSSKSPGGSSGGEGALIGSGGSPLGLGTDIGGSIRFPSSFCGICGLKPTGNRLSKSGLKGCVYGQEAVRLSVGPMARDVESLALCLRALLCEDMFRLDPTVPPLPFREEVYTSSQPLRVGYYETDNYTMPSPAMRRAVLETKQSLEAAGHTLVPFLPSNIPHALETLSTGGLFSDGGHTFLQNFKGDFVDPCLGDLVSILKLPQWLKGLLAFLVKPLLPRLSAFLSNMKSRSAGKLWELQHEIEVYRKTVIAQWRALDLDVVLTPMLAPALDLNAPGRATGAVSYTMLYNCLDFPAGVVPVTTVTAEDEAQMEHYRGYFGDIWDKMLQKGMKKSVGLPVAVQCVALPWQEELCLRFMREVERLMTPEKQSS
# Experiment: Screening for an FAAH activity-inhibiting substance with human bladder epithelial cancer-derived cell line 5637 cells (IC50)
# Assay type: cell-based
# Details: FAAH activity in human bladder epithelial cancer-derived 5637 cells, 37° C., 30 minutes
# Experimental: Screening for an FAAH Activity-Inhibiting Substance with a Human Bladder Epithelial Cancer-Derived Cell
# (1) Screening for an FAAH Activity Inhibiting Substance
# Human bladder epithelial cancer-derived cell line 5637 cells (HTB-9; ATCC) were seeded on a 48-well cell culture plate in an amount of 1×10^5 cell/well, using 10% fetal bovine serum (HyClone)-containing RPMI1640 medium (Invitrogen Corporation). After incubated at 37° C. for 12 hours or longer, the cells were washed with 400 μl/well of a buffer (Hank's Balanced Salt Solution, 20 mM Hepes-NaOH (pH 7.4)). A test substance dissolved in DMSO was added to a substrate solution (the above buffer containing 3 μCi/ml radiolabeled anandamide (Anandamide [ethanolamine 1-^3H]) and 10 μM anandamide) so as to have a concentration from 0.003 nM to 30 nM. As a control, DMSO alone was added. 100 μl/well of the substrate solution was added to the above cells, and incubated in a CO2 incubator at 37° C. for 30 minutes. Next, the cell culture plate was transferred onto ice, and the substrate solution was removed by suction; and 75 μl/well of a cytolytic solution (the above buffer containing 0.5% Triton X-100, and 10 μM of FAAH-inhibitory activity-having compound, 3′-carbamoylbiphenyl-3-yl ester (URB597; Cayman chemical; Kathuria et al., Nature Med., Vol. 9, pp. 76-81, 2003)) was added thereto, followed by stirring. The resulting cell lysate in every well was individually transferred into a 1.5 ml sample tube, to which was added 150 μl of 1:1 (ratio by volume) chloroform/methanol solution, followed by vortexing. This was centrifuged (15000 rpm, 2 minutes), whereby the decomposed product, ethanolamine (ethanolamine 1-^3H) was separated in the upper layer (water/methanol layer) and the unreacted radiolabeled anandamide was in the lower layer (chloroform layer). 25 μl of the upper layer was transferred into a 96-well organic solvent-resistant white microplate (PicoPlate-96; Perkin Elmer, Inc.), 150 μl of Microscint-20 (Perkin Elmer, Inc.) was added thereto, and this was measured with a microplate scintillation counter (TopCount™; Beckman Coulter, Inc.). As compared with the control, the substance that gave a decreased value was selected as an FAAH activity-inhibiting substance.
# (2) Measurement of the IC50 Value of the FAAH Activity Inhibiting Substance
# The compound dissolved in DMSO to have a concentration of 10 mM was dissolved in the substrate solution so as to have a varying concentration from 0.003 nM to 30 nM. According to the method mentioned above, the compound was analyzed for its influence on FAAH activity. As a negative control, DMSO was used. As a positive control, URB597 was added to the substrate solution to have a concentration of 10 μM. Based on the measured value of the positive control, 0%, and on the measured value of the negative control, 100%, the IC50 value of the test substance was obtained. Furthermore, Ex represents Example No. as denoted below.
row,Structure (SMILES),IC50
1,O=C(c1ccc(OCCC2CCCCC2)cc1)C1CCN(C(=O)Nc2cccnc2)CC1 [Example 75],0.81 nM
2,CN(Cc1cccc(F)c1)c1ccc(C(=O)N2CCN(C(=O)Nc3cccnc3)CC2)cc1 [Example 322],0.54 nM
3,O=C(Nc1nccnc1Cl)N1CCC(Oc2cccc(OCCC3CCCCC3)c2)CC1 [Example 488],0.85 nM
4,"O=C(Nc1cccnc1)N1CCC(Oc2ccc(OCc3cccc(F)c3)cc2)CC1 [Example 1, 4-{4-[(3-fluorobenzyl)oxy]phenoxy}-N-(pyridin-3-yl)piperidine-1-carboxamide hydrochloride]",5.6 nM
5,O=C(c1ccc(OCc2cccc(F)c2)cc1)C1CCN(C(=O)Nc2cccnc2)CC1 [Example 59],0.82 nM
6,CCCCCCOc1ccc(C(=O)N2CCN(C(=O)Nc3cccnc3)CC2)cc1 [Example 317],0.57 nM

# Compounds with a lower IC50, results first:
row,IC50,Structure (SMILES)
1,0.12 nM,O=C(Nc1cccnc1)N1CCN(C(=O)c2cccc(OCCc3ccccc3)c2)CC1 [Example 426]
2,0.16 nM,O=C(c1ccc(OCc2cccc(F)c2)cc1)N1CCN(C(=O)n2ccnc2)CC1 [Example 300]
3,0.29 nM,Nc1ccnn1C(=O)N1CCN(C(=O)c2cccc(OCCC3CCCCC3)c2)CC1 [Example 159]
4,0.06 nM,"O=C(N1CCC(Oc2ccc(OCc3cccc(F)c3)cc2)CC1)n1ccnc1 [Example 12, 4-{4-[(3-fluorobenzyl)oxy]phenoxy}-1-(1H-imidazol-1-ylcarbonyl)piperidine]"
5,0.22 nM,O=C(Cc1ccc(OCc2cccc(F)c2)cc1)N1CCN(C(=O)Nc2cccnc2)CC1 [Example 136]
6,0.24 nM,O=C(Nc1cccnc1)N1CCN(C(=O)c2cccc(OCC3CCCCC3)c2)CC1 [Example 320]
7,0.08 nM,O=C(Nc1cccnc1)N1CCN(Cc2cccc(OCCC3CCCCC3)c2)CC1 [Example 388]
8,0.33 nM,O=C(Nc1ccc(-n2cccn2)nc1)N1CCN(C(=O)c2cccc(OCCC3CCCCC3)c2)CC1 [Example 156]
9,0.21 nM,CC(=O)Nc1ccc(NC(=O)N2CCN(C(=O)c3cccc(OCCC4CCCCC4)c3)CC2)cn1 [Example 179]
